Measured values reported in patent publication US20110275673A1, “INHIBITORS OF SPHINGOSINE KINASE 1” (priority 2008, published 2011).
Where a name gives a salt, the structure may show the parent alone.

Molecular target: T1, SPHK-1 (Homo sapiens, UniProt Q9NYA1)
T1 construct: purchased BPS Bioscience
Test: Reporter Assay: sphingosine kinase conversion of fluorescein-labeled sphingosine, read on Lab Chip 3000
Assay type: biochemical
Details: 2 μM Fl-sphingosine, 25 μM ATP, 300 ng/ml SK1, 1 hour at room temperature; from percent conversion of substrate to product; read-out: SPHK-1 IC50 (n =)
Protocol: Sphingosine kinase is a 49 kDa enzyme that catalyzes the formation of sphingosine-1-phosphate (S-1-P) from sphingosine.
Fluorescein labeled sphingosine was obtained from Echelon Biosciences (S-100F). Buffer reagents (1 M Hepes, 10 triton x-100, 100% glycerol, dithiothreitol 1 M MgCl2, ATP, 500 mM EDTA and DMSO) were purchased from Sigma. Coating reagent (CR-3), was obtained from Caliper Life Sciences.
0.05% Triton X-100, 2.5% glycerol, 0.1% CR-3, and 0,6% DMSO. Termination butler included 100 mM Hepes (pH 7.5), 40 mM EDTA, 0.05% Triton X-100, 2.5% glycerol, 0.3% CR-3, and 0.6% DMSO.
All assay components were made in reaction buffer. […] The assaylvas allowed to incubate at room temperature sealed and protected from light for 1 hour.
After 1 hour, 10 μl of termination buffer was added to terminate, the reaction, and the plate was read on a Lab Chip 3000. The plate was read for one cycle. The Lab Chip separated substrate and product based on charge.
Results were calculated based on percent conversion of substrate to product using the following formula: […]
Percent inhibition and IC50's for compounds of the invention were determined using the percent conversion values obtained horn the Lab Chip.

T1 sequence (Q9NYA1 whole entry): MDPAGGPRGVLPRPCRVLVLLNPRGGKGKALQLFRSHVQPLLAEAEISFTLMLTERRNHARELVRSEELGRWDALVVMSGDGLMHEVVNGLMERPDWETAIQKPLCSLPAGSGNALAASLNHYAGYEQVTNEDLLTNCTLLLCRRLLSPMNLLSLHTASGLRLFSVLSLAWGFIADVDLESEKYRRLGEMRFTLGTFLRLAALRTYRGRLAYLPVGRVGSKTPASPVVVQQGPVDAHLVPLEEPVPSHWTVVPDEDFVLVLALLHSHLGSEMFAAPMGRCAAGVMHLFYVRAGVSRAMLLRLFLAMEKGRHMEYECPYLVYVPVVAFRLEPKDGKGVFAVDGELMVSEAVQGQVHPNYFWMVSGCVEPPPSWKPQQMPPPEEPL

Structure (SMILES) | IC50 [nM]
CCCc1ccc(-c2nc(-c3ccc(CNC(=O)[C@H]4NCC[C@@H]4O)cc3)no2)cc1 [Example 81, (2S,3S)-3-Hydroxy-N-(4-(5-(4-propylphenyl)-1,2,4-oxadiazol-3-yl)benzyl)pyrrolidine-2-carboxamide] | 1800
CCCCc1ccc(-c2nc(-c3ccc(CNC(=O)[C@H]4NCC[C@@H]4O)cc3)no2)cc1 [Example 82, (2S,3S)—N-(4-(5-(4-Butylphenyl)-1,2,4-oxadiazol-3-yl)benzyl)-3-hydroxypyrrolidine-2-carboxamide] | 3700
O=C(NCc1ccc(-c2noc(C3CCC(F)(F)CC3)n2)cc1)[C@H]1NCC[C@@H]1O [Example 92, (2S,3S)—N-(4-(5-(4,4-Difluorocyclohexyl)-1,2,4-oxadiazol-3-yl)benzyl)-3-hydroxypyrrolidine-2-carboxamide] | 6400
CCCCCCCc1ccc(-c2ccc(NC(=O)[C@@H](N)[C@@H](C)O)cc2)nc1 [Example 101, (2S,3R)-2-amino-N-(4-(5-heptylpyridin-2-yl)phenyl)-3-hydroxybutanamide] | 900
CCCCCCCc1noc(-c2ccc(CNC(=O)[C@@H]3C[C@@H](O)CCN3)cc2)n1 [Example 102, (2S,4S)—N-(4-(3-heptyl-1,2,4-oxadiazol-5-yl)benzyl)-4-hydroxypiperidine-2-carboxamide] | 2700
CCCCCCCc1ccc(-c2ccc(NC(=O)[C@H]3NCC[C@@H]3O)cc2)nc1 [Example 104, (2S,3S)—N-(4-(5-heptylpyridin-2-yl)phenyl)-3-hydroxypyrrolidine-2-carboxamide] | 1600
CCCCCCCCc1cc2cc(CNC(=O)[C@H]3NCC[C@@H]3O)ccc2[nH]1 [Example 108, (2S,3S)-3-Hydroxy-N-((2-octyl-1H-indol-5-yl)methyl)pyrrolidine-2-carboxamide] | 9400
O=C(NCc1ccc2oc(CCCOc3ccc(F)cc3)cc2c1)[C@H]1NCC[C@@H]1O [Example 110, (2S,3S)—N-((2-(3-(4-Fluorophenoxy)propyl)benzofuran-5-yl)methyl)-3-hydroxypyrrolidine-2-carboxamide] | 5200
O=C(NCc1ccc2oc(CCOc3ccc(F)cc3)cc2c1)[C@H]1NCC[C@@H]1O [Example 111, (2S,3S)—N-((2-(2-(4-Fluorophenoxy)ethyl)benzofuran-5-yl)methyl)-3-hydroxypyrrolidine-2-carboxamide] | 5000
O=C(NCc1ccc2oc(C3CCCCC3)cc2c1)[C@H]1NCC[C@@H]1O [Example 115, (2S,3S)—N-((2-Cyclohexylbenzofuran-5-yl)methyl)-3-hydroxypyrrolidine-2-carboxamide] | 1200
O=C(NCc1cc(F)c2oc(CC3CCCC3)cc2c1)[C@H]1NCC[C@@H]1O [Example 120, (2S,3S)—N-((2-(Cyclopentylmethyl)-7-fluorobenzofuran-5-yl)methyl)-3-hydroxypyrrolidine-2-carboxamide] | 2300
O=C(NCc1cc(F)c2oc(C3CCCCC3)cc2c1)[C@H]1NCC[C@@H]1O [Example 122, (2S,3S)—N-((2-Cyclohexyl-7-fluorobenzofuran-5-yl)methyl)-3-hydroxypyrrolidine-2-carboxamide] | 790
CCCCCCCCCCc1ccc(NC(=O)[C@H]2C[C@H](O)CCN2)cc1 [Example 123, (2R,4R)—N-(4-decylphenyl)-4-hydroxypiperidine-2-carboxamide] | 9700
CCCCCCCCCCc1ccc(NC(=O)[C@@H]2C[C@@H](O)CCN2)cc1 [Example 124, (2S,4S)—N-(4-decylphenyl)-4-hydroxypiperidine-2-carboxamide] | 2700

Compounds with a lower IC50, results first:

IC50 [nM] | Structure (SMILES)
700 | CCCCCCCCc1cc2cc(CNC(=O)[C@H]3NCC[C@@H]3O)c(F)cc2o1 [Example 119, (2S,3S)—N-((6-Fluoro-2-octylbenzofuran-5-yl)methyl)-3-hydroxypyrrolidine-2-carboxamide]
600 | CCCCCCCc1nc(-c2ccc(CNC(=O)[C@@H](N)CCO)cc2)no1 [Example 83, (S)-2-Amino-N-(4-(5-heptyl-1,2,4-oxadiazol-3-yl)benzyl)-4-hydroxybutanamide]
530 | CCCCCCc1cc2cc(CNC(=O)[C@H]3NCC[C@@H]3O)ccc2o1 [Example 114, (2S,3S)—N-((2-Hexylbenzofuran-5-yl)methyl)-3-hydroxypyrrolidine-2-carboxamide]
510 | CCCCCCCCc1cc2c(F)c(CNC(=O)[C@H]3NCC[C@@H]3O)ccc2o1 [Example 121, (2S,3S)—N-((4-Fluoro-2-octylbenzofuran-5-yl)methyl)-3-hydroxypyrrolidine-2-carboxamide]
490 | CCCCCCCCc1cc2ccc(CNC(=O)[C@H]3NCC[C@@H]3O)cc2o1 [Example 112, (2S,3S)-3-Hydroxy-N-((2-octylbenzofuran-6-yl)methyl)pyrrolidine-2-carboxamide]
460 | CCCCCCCCc1cc2cc(CNC(=O)[C@H]3NCC[C@@H]3O)cc(F)c2o1 [Example 118, (2S,3S)—N-((7-Fluoro-2-octylbenzofuran-5-yl)methyl)-3-hydroxypyrrolidine-2-carboxamide]
430 | O=C(NCc1ccc2oc(CCC3CCCCC3)cc2c1)[C@H]1NCC[C@@H]1O [Example 117, (2S,3S)—N-((2-(2-Cyclohexylethyl)benzofuran-5-yl)-methyl)-3-hydroxypyrrolidine-2-carboxamide]
300 | CCCCCCCCc1cc2cc(CNC(=O)[C@H]3NCC[C@@H]3O)ccc2n1C [Example 109, (2S,3S)-3-Hydroxy-N-((1-methyl-2-octyl-1H-indol-5-yl)methyl)pyrrolidine-2-carboxamide]
160 | CCCCCCCc1cc2cc(CNC(=O)[C@H]3NCC[C@@H]3O)ccc2o1 [Example 113, (2S,3S)—N-((2-Heptylbenzofuran-5-yl)methyl)-3-hydroxypyrrolidine-2-carboxamide]
130 | CC[C@H](NC(=O)[C@H]1NCC[C@@H]1O)c1ccc(-c2noc(C3CCCCC3)n2)cc1 [Example 99, (2S,3S)—N—((S)-1-(4-(5-Cyclohexyl-1,2,4-oxadiazol-3-yl)phenyl)propyl)-3-hydroxypyrrolidine-2-carboxamide hemi-tartrate salt]
110 | O=C(NCc1ccc2oc(CC3CCCCC3)cc2c1)[C@H]1NCC[C@@H]1O [Example 116, (2S,3S)—N-((2-(Cyclohexylmethyl)benzofuran-5-yl)methyl)-3-hydroxypyrrolidine-2-carboxamide]
70 | CCCCCCCCc1cnc(-c2ccc(CNC(=O)[C@H]3NCC[C@@H]3O)cc2)s1 [Example 106, (2S,3S)-3-hydroxy-N-(4-(5-octylthiazol-2-yl)benzyl)pyrrolidine-2-carboxamide]
59 | C[C@H](NC(=O)[C@H]1NCC[C@@H]1O)c1ccc(-c2noc(CCC3CCC3)n2)cc1 [Example 100, (2S,3S)—N—((S)-1-(4-(5-(2-Cyclobutylethyl)-1,2,4-oxadiazol-3-yl)phenyl)ethyl)-3-hydroxypyrrolidine-2-carboxamide hemi tartrate salt]
49 | CCCCCCCCc1nc(-c2ccc(CNC(=O)[C@H]3NCC[C@@H]3O)cc2)cs1 [Example 103, (2S,3S)-3-hydroxy-N-(4-(2-octylthiazol-4-yl)benzyl)pyrrolidine-2-carboxamide]
31 | CCCCCCCCc1cc2cc(CNC(=O)[C@H]3NCC[C@@H]3O)ccc2o1 [Example 107, (2S,3S)-3-Hydroxy-N-((2-octylbenzofuran-5-yl)methyl)pyrrolidine-2-carboxamide]
